# Results: patent US20080021069A1, “Receptor Function Regulating Agent” (TAKEDA PHARMACEUTICAL COMPANY LIMITED, priority 2004, published 2008)
row,melting point [°C],SMILES
1,118 to 126,Cl.Clc1ccc(CSc2nc3cc(Cl)ccc3n2-c2ccc(OCC3CC3)cc2)cc1
2,122 to 123,"CCCOc1ccc(-n2c(NCc3ccc(Cl)cc3)nc3cc(Cl)ccc32)cc1 [Example 85, 5-Chloro-N-(4-chlorobenzyl)-1-(4-propoxyphenyl)-1H-benzimidazol-2-amine]"
3,130 to 131,"CCOCOc1ccc(-n2c(SCc3ccc(Cl)cc3)nc3ccc(Cl)cc32)cc1 [Example 31, 6-Chloro-2-[(4-chlorobenzyl)thio]-1-[4-(ethoxymethoxy)phenyl]-1H-benzimidazole]"
4,94 to 95,"COc1ccc(-n2c(SCc3ccccc3Cl)nc3ccc(Cl)cc32)cc1 [Example 3, 6-Chloro-2-[(2-chlorobenzyl)thio]-1-(4-methoxyphenyl)-1H-benzimidazole]"
5,80 to 86,COc1ccc(-n2c(SCc3ccc(Cl)cc3)nc3ccc(Cl)cc32)cn1.Cl
6,88 to 90,"COCCOc1ccc(-n2c(SCc3ccc(Cl)cc3)nc3ccc(Cl)cc32)cc1 [Example 24, 6-Chloro-2-[(4-chlorobenzyl)thio]-1-[4-(2-methoxyethoxy)phenyl]-1H-benzimidazole]"
7,102 to 103,"CC(C)Oc1ccc(-n2c(SCc3ccc(Cl)cc3)nc3ccc(Cl)cc32)cc1 [Example 23, 6-Chloro-2-[(4-chlorobenzyl)thio]-1-(4-isopropoxyphenyl)-1H-benzimidazole]"
8,119 to 120,"COc1ccc(CSc2nc3ccc(Cl)cc3n2-c2ccc(OC)cc2)cc1 [Example 6, 6-Chloro-2-[(4-methoxybenzyl)thio]-1-(4-methoxyphenyl)-1H-benzimidazole]"
9,176 to 177,"CCC(=O)c1ccc(-n2c(SCc3ccc(Cl)cc3)nc3ccc(Cl)cc32)cc1 [Example 40, 1-(4-{6-Chloro-2-[(4-chlorobenzyl)thio]-1H-benzimidazol-1-yl}phenyl)propan-1-one]"
10,188 to 189,"CCOc1ccc(-n2c(NCc3ccc(C(C)(C)C)cc3)nc3ccc(Cl)cc32)cc1.Cl [Example 70, N-(4-tert-Butylbenzyl)-6-chloro-1-(4-ethoxyphenyl)-1H-benzimidazol-2-amine hydrochloride]"
11,95 to 96,"CCOCc1ccc(-n2c(SCc3ccc(Cl)cc3)nc3ccc(Cl)cc32)cc1 [Example 117, 6-Chloro-2-[(4-chlorobenzyl)thio]-1-[4-(ethoxymethyl)phenyl]-1H-benzimidazole]"
12,93 to 94,"COc1ccc(-n2c(SCc3cccc(OC)c3)nc3ccc(Cl)cc32)cc1 [Example 5, 6-Chloro-2-[(3-methoxybenzyl)thio]-1-(4-methoxyphenyl)-1H-benzimidazole]"
13,96 to 100,CCOc1ccc(-n2c(SCc3ccc(C(C)C)cc3)nc3ccc(Cl)cc32)cc1.Cl
14,175 to 176,"CCOc1ccc(-n2c(SCc3ccc(C(C)(C)C)cc3)nc3cccc(Cl)c32)cc1 [Example 139, 2-[(4-tert-Butylbenzyl)thio]-7-chloro-1-(4-ethoxyphenyl)-1H-benzimidazole]"
15,95 to 96,"COCOc1ccc(-n2c(SCc3ccccn3)nc3ccc(Cl)cc32)cc1 [Example 55, 6-Chloro-1-[4-(methoxymethoxy)phenyl]-2-[(pyridin-2-ylmethyl)thio]-1H-benzimidazole]"
16,125 to 126,"CON(C)C(=O)c1ccc(-n2c(SCc3ccc(Cl)cc3)nc3ccc(Cl)cc32)cc1 [Example 39, 4-{6-Chloro-2-[(4-chlorobenzyl)thio]-1H-benzimidazol-1-yl}-N-methoxy-N-methylbenzamide]"
17,138 to 139,"FC(F)(F)COc1ccc(-n2c(NCc3ccc(Cl)cc3)nc3cc(Cl)ccc32)cc1 [Example 91, 5-Chloro-N-(4-chlorobenzyl)-1-[4-(2,2,2-trifluoroethoxy)phenyl]-1H-benzimidazol-2-amine]"
18,116 to 117,"COc1ccc(-n2c(SCc3ccc(Cl)cc3)nc3ccc(Cl)cc32)cc1 [Example 1, 6-Chloro-2-[(4-chlorobenzyl)thio]-1-(4-methoxyphenyl)-1H-benzimidazole]"
19,107 to 109,"CCOc1ccc(-n2c(SCc3ccc(C(=O)OC)cc3)nc3ccc(Cl)cc32)cc1 [Example 37, Methyl 4-({[6-chloro-1-(4-ethoxyphenyl)-1H-benzimidazol-2-yl]thio}methyl)benzoate]"
20,112 to 113,"CCCOc1ccc(-n2c(NCc3ccc(Br)cc3)nc3cc(Cl)ccc32)cc1 [Example 84, N-(4-Bromobenzyl)-5-chloro-1-(4-propoxyphenyl)-1H-benzimidazol-2-amine]"
21,193 to 194,"Clc1ccc(CSc2nc3ccc(Cl)cc3n2-c2ccc(OCc3ccccc3)cc2)cc1 [Example 119, 1-[4-(Benzyloxy)phenyl]-6-chloro-2-[(4-chlorobenzyl)thio]-1H-benzimidazole]"
22,137 to 138,"Clc1ccc(CSc2nc3ccc(Cl)cc3n2-c2ccc(OCC3CC3)cc2)cc1 [Example 11, 6-Chloro-2-[(4-chlorobenzyl)thio]-1-[4-(cyclopropylmethoxy)phenyl]-1H-benzimidazole]"
23,210 to 212,"Oc1ccc(-n2c(SCc3ccc(Cl)cc3)nc3ccc(Cl)cc32)cc1 [Example 9, 4-{6-Chloro-2-[(4-chlorobenzyl)thio]-1H-benzimidazol-1-yl}phenol]"
24,128 to 129,"CS(=O)(=O)Oc1ccc(-n2c(SCc3ccc(Cl)cc3)nc3ccc(Cl)cc32)cc1 [Example 25, 4-{6-Chloro-2-[(4-chlorobenzyl)thio]-1H-benzimidazol-1-yl}phenyl methanesulfonate]"
25,185 to 186,"O=C(NCCO)c1ccc(-n2c(SCc3ccc(Cl)cc3)nc3ccc(Cl)cc32)cc1 [Example 43, 4-{6-Chloro-2-[(4-chlorobenzyl)thio]-1H-benzimidazol-1-yl}-N-(2-hydroxyethyl)benzamide]"
26,69 to 76,COc1ccc(-n2c(SCc3ccc(C(F)(F)F)nc3)nc3ccc(Cl)cc32)cn1.Cl
27,163 to 164,"CC(C)(C)OC(=O)Nc1ccc(-n2c(SCc3ccc(Cl)cc3)nc3ccc(Cl)cc32)cc1 [Example 114, tert-Butyl (4-{6-chloro-2-[(4-chlorobenzyl)thio]-1H-benzimidazol-1-yl}phenyl)carbamate]"
28,156 to 157,"Clc1ccc(CSc2nc3ccc(Cl)cc3n2-c2ccc(Cl)cc2)cc1 [Example 26, 6-Chloro-2-[(4-chlorobenzyl)thio]-1-(4-chlorophenyl)-1H-benzimidazole]"
29,89 to 90,"COc1ccc(-n2c(SCc3ccccc3)nc3ccc(Cl)cc32)cc1 [Example 21, 2-(Benzylthio)-6-chloro-1-(4-methoxyphenyl)-1H-benzimidazole]"

row,SMILES,melting point [°C]
1,"CCCCOc1ccc(-n2c(SCc3ccc(Cl)cc3)nc3ccc(Cl)cc32)cc1 [Example 22, 1-(4-Butoxyphenyl)-6-chloro-2-[(4-chlorobenzyl)thio]-1H-benzimidazole]",96 to 97
2,"CCCCOc1ccc(-n2c(NCc3ccc(Br)cc3)nc3cc(Cl)ccc32)cc1 [Example 88, N-(4-Bromobenzyl)-1-(4-butoxyphenyl)-5-chloro-1H-benzimidazol-2-amine]",95 to 96
